The text below walks through data of patent US9120768B2, “Compositions and methods for treatment of cystic fibrosis and diseases associated with aberrant protein cellular processing” (The Hospital for Sick Children, priority 2010, dated 2015).

For series [1], the target named is T1, delF508-CFTR (Homo sapiens, UniProt P13569, DEL508-508). The series is described as follows: Cellomics YFP quenching assay. Type of series: cell-based. Also on record: expressed in transfected cells; host or cells: HEK293 MSR GripTite (293MSR-GT) cells, also stably expressing eYFP(H148Q/I152L). The settings on record: 10 μM, 48 hrs, 37° C., 293MSR-GT cells, stimulated with FIG; FIG. 1.
T1 sequence (P13569 with tags, fused parts or gaps DEL508-508): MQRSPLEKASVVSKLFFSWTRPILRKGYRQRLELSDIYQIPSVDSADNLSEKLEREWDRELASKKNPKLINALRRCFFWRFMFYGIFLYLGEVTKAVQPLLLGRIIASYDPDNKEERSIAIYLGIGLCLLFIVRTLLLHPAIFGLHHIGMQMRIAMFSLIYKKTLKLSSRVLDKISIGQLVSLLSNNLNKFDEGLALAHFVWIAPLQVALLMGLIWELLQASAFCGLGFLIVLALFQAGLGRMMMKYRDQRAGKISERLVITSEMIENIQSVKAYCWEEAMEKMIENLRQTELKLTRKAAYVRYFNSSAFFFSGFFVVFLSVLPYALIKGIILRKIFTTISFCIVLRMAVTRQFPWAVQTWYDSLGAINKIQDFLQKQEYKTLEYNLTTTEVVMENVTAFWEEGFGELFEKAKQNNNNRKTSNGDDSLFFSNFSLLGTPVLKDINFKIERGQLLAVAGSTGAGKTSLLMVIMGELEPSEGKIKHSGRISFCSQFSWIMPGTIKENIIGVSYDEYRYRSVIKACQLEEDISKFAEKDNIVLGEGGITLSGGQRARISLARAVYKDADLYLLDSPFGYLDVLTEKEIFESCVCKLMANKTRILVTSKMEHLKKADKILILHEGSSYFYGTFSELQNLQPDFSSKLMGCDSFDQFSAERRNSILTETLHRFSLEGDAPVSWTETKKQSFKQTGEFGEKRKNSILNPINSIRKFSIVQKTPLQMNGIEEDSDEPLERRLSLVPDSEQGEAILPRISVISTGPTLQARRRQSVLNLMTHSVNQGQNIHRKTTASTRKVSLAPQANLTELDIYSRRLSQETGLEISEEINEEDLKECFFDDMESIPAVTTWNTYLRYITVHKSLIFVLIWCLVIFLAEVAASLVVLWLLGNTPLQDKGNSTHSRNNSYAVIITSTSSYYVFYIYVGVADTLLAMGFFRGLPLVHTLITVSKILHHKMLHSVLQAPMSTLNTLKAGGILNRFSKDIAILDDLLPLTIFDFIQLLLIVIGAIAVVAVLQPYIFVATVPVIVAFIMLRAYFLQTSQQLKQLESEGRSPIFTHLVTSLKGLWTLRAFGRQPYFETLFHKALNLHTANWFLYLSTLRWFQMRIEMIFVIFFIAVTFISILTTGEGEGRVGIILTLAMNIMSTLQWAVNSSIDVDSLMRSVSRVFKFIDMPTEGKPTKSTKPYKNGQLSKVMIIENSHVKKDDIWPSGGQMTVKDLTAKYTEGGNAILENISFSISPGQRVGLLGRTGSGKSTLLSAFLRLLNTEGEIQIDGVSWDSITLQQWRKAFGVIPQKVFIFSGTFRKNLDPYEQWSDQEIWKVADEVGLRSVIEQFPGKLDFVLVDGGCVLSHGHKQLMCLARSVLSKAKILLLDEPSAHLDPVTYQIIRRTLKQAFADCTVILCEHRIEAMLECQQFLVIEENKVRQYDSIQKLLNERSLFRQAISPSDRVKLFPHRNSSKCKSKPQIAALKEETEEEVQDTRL
Description: Cellomics YFP quenching assay was performed as described previously^66. […] After 48 hrs of incubation the medium was replaced with 152 μl of chloride solution (137 mM NaCl, 2.7 mM KCl, 0.7 mM CaCl2, 1.1 mM MgCl2, 1.5 mM KH2PO4, 8.1 mM Na2HPO4, pH 7.1), in the absence or presence of FIG (25 M Forskolin, 45 μM IBMX, 50 μM Genistein) at 37° C. After 20 min incubation, 92 μl of iodide buffer (137 mM NaI, 2.7 mM KCl, 0.7 mM CaCl2, 1.1 mM MgCl2, 1.5 mM KH2PO4, 8.1 mM Na2HPO4, pH 7.1) was added (final concentration 52 mM) and the decrease in fluorescence intensity over time was recorded using the Cellomics VTI (ThermoFisher), at 30° C. […] After two days of incubation, cells were stimulated for 20 min with FIG mixture. They were then exposed to low Cl^−/high I^− medium by replacing 137 mM Na^+Cl^− with Na^+I^−, and fluorescence quenching of the cells due to Cl^−/I^− exchange (presumably via CFTR) was monitored and quantified over time by the Cellomics VTI reader.

Series [2] concerns the target T1, delF508-CFTR. The series is described as follows: Immunoblotting for delF508-CFTR maturation (band C). Also on record: expressed in transfected cells; host or cells: HEK293 MSR GripTite (293MSR-GT) cells, also stably expressing eYFP(H148Q/I152L). Conditions: 10 μM, 48 hrs, 37° C., 293MSR-GT cells, anti-CFTR immunoblot; FIG. 2. Type of series: cell-based. Background: Immunoblotting shows a protein as a band on a membrane.
Description: Protein expression and rescue of delF508-CFTR were validated by immunoblotting with anti-CFTR monoclonal antibodies (clone M3A7, Chemicon Cat.#MAB3480) as described previously^66. […] The rescue of delF508-CFTR was validated by Western blotting as described previously^66. […] Proteins were resolved on SDS-PAGE, transferred to nitrocellulose membranes and immunoblotted with anti-CFTR monoclonal antibodies (M3A7, 1 μg/ml) or anti-β-actin antibodies (1:10000). Membranes were washed with 5% Blotto, incubated with HRP-conjugated goat anti-mouse antibody (1:5000) and washed with PBST. Signal was detected with SuperSignal West Femto reagent.

Series [3] deals with T1, delF508-CFTR. The series can be described thus: Short circuit current (Ussing chamber) in primary human bronchial epithelial cells. Conditions: 10 μM, 48 hrs, HBE cells of delF508/delF508 patients, versus vehicle alone; FIGS. 5-7. It is filed as cell-based. Also on record: primary cultures of human bronchial epithelia (HBE) obtained from transplant patients homozygous for the delF508 mutation; host or cells: primary human bronchial epithelial (HBE) cells from delF508/delF508 lung transplant patients.

The target of series [4] is TAK1 (Homo sapiens, UniProt O43318). Conditions: competitive with ATP; cited from earlier work.
Sequence of TAK1 (O43318 whole entry): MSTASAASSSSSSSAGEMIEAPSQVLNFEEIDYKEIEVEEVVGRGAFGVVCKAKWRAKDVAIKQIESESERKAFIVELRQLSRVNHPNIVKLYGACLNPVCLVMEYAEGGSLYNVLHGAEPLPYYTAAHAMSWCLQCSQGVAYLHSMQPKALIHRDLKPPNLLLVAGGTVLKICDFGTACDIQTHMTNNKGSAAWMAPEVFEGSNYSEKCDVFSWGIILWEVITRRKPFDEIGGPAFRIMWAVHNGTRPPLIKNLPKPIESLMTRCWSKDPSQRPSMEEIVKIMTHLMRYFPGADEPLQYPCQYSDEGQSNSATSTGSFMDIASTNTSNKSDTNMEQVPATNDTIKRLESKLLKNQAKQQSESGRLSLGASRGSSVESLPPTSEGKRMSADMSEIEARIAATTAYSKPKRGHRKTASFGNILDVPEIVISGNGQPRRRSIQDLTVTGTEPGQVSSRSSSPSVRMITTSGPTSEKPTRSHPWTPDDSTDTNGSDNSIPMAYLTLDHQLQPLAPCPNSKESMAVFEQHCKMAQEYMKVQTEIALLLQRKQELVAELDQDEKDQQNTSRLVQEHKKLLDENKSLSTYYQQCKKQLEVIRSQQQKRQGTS
Sequence of TAK1 (Q15750 whole entry partner): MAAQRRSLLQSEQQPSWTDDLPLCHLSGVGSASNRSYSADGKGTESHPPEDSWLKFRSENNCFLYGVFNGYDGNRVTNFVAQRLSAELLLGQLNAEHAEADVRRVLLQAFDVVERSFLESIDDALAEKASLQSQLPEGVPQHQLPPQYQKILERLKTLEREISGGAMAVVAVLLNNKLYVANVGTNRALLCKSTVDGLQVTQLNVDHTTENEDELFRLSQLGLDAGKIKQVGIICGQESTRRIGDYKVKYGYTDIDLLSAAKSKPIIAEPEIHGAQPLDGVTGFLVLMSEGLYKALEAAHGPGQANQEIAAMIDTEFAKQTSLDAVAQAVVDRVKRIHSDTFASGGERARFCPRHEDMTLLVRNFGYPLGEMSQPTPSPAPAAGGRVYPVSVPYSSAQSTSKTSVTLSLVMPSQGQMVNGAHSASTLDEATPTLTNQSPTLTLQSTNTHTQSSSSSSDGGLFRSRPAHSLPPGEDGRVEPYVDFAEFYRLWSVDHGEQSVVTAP
For series [5], the target named is ERK2 (Homo sapiens, UniProt P28482). The settings on record: cited from earlier work.
Sequence of ERK2 (P28482 whole entry, species assumed): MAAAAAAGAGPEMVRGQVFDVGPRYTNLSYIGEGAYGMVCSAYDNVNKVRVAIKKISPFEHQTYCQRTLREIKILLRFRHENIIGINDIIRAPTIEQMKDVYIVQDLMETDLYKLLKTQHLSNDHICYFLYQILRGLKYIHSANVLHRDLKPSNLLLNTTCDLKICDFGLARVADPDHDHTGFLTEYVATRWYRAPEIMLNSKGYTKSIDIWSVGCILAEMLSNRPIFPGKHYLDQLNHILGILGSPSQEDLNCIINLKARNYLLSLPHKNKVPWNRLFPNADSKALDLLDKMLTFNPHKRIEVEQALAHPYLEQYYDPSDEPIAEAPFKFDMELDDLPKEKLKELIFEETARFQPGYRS
For series [6], the system named is inflammation. Conditions: animal model, topical application; cited from earlier work.
The test system of series [7] is 293MSR-GT cells. The series is described as follows: Sensitivity of 293MSR-GT cells toward compound. The settings on record: compound could not be tested by YFP quenching or immunoblotting.

Turning to `Cc1c[nH]c(/C=C2\C(=O)Nc3ccccc32)c1CCC(=O)O` [SU5402, 3-[4-methyl-2-[(Z)-(2-oxo-1H-indol-3-ylidene)methyl]-1H-pyrrol-3-yl]propanoic acid], the “delF508-CFTR activity (fluorescence quenching due to Cl-/I- exchange)” value in series [1] is “restores delF508-CFTR activity to a level that is similar to that obtained with corr-4-a”. In addition, the “appearance of mature delF508-CFTR protein (band C)” value in series [2] is recorded as “led to the appearance of the mature band C, similar to that seen with corr-4-a”. Further, the “delF508-CFTR chloride channel activity (short-circuit current)” value (from here on “delF508-CFTR chloride channel activity”) in series [3] is given as “enhanced activity of the mutant CFTR”.

As for `COc1cc(O)c2c(c1)/C=C/C[C@H](O)[C@H](O)C(=O)/C=C\C[C@H](C)OC2=O` [(5Z)-7-oxozeaenol, (3S,5Z,8S,9S,11E)-3,4,9,10-tetrahydro-8,9,16-trihydroxy-14-methoxy-3-methyl-1H-2-benzoxacyclotetradecin-1,7(8H)-dione], the TAK1 inhibition result in series [4] is recorded as “irreversibly inhibits TAK1”. Also, the “ERK2 enzyme activity inhibition” value in series [5] was “inhibit ERK2 enzyme activity”. The prevention of inflammation result in series [6] is “effectively prevent inflammation in an animal model”. Also, in series [1], the “delF508-CFTR activity (fluorescence quenching due to Cl-/I- exchange)” value was “restores delF508-CFTR activity to a level that is similar to that obtained with corr-4-a”. Also, the “appearance of mature delF508-CFTR protein (band C)” value in series [2] is listed as “led to the appearance of the mature band C, similar to that seen with corr-4-a”. In addition, the “delF508-CFTR chloride channel activity” value in series [3] was “enhanced activity of the mutant CFTR”.

Turning to `Cc1[nH]c(/C=C2\C(=O)Nc3ccccc32)c(C)c1CCC(=O)O` [SU6668, 3-[2,4-dimethyl-5-[(Z)-(2-oxo-1H-indol-3-ylidene)methyl]-1H-pyrrol-3-yl]propanoic acid], the “sensitivity of 293MSR-GT cells toward compound” value in series [7] is “increased sensitivity”. Besides, the “delF508-CFTR chloride channel activity” value in series [3] was “enhanced activity of the mutant CFTR”.
